Test results taken from ChEMBL document CHEMBL5154705, “Discovery and mechanistic study of thiazole-4-acylsulfonamide derivatives as potent and orally active ChemR23 inhibitors with a long-acting effect in cynomolgus monkeys” (Bioorg Med Chem, 2022).

Key:
[1] = MRT in cynomolgus monkey at 1 mg/kg, po; format: ADME, organism-based, Macaca fascicularis; conditions: in vivo
[2] = AUC(0 to infinity) in cynomolgus monkey at 1 mg/kg, po; format: ADME, organism-based, Macaca fascicularis; parameters: time infinity, dose 1 mg/kg, route po; conditions: in vivo
[3] = Drug concentration in cynomolgus monkey plasma at 1 mg/kg, po after 8 hrs; format: ADME, organism-based, Macaca fascicularis
[4] = Half life in cynomolgus monkey at 1 mg/kg, po; format: ADME, organism-based, Macaca fascicularis; conditions: in vivo
[5] = Cmax in cynomolgus monkey at 1 mg/kg, po; format: ADME, organism-based, Macaca fascicularis; parameters: dose 1 mg/kg, route po; conditions: in vivo
[6] = Tmax in cynomolgus monkey at 1 mg/kg, po; format: ADME, organism-based, Macaca fascicularis; conditions: in vivo
[7] = molecular target: T1, Chemerin-like receptor 1 (Homo sapiens) (UniProt Q99788); conditions: CAL1
T1 sequence (whole entry): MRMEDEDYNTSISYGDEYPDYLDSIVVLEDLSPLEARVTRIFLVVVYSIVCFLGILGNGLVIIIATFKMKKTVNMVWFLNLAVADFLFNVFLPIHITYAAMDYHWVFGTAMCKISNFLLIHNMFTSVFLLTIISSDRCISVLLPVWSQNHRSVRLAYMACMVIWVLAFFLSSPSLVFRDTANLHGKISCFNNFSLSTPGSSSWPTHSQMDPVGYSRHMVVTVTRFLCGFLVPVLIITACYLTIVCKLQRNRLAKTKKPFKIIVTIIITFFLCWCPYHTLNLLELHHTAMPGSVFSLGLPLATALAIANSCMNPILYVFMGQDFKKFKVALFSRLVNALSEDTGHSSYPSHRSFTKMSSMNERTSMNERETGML

[8] = Cmax in cynomolgus monkey at 0.3 to 1 mg/kg, po; format: ADME, organism-based, Macaca fascicularis; parameters: route po; conditions: in vivo, dose 0.3-1 mg/kg
[9] = MRT in cynomolgus monkey at 0.3 to 1 mg/kg, po; format: ADME, organism-based, Macaca fascicularis; conditions: in vivo, dose 0.3-1 mg/kg
[10] = Tmax in cynomolgus monkey at 0.3 to 1 mg/kg, po; format: ADME, organism-based, Macaca fascicularis; conditions: in vivo, dose 0.3-1 mg/kg
[11] = AUC(0 to infinity) in cynomolgus monkey at 0.3 to 1 mg/kg, po; format: ADME, organism-based, Macaca fascicularis; parameters: route po; conditions: in vivo, dose 0.3-1 mg/kg
[12] = Half life in cynomolgus monkey at 0.3 to 1 mg/kg, po; format: ADME, organism-based, Macaca fascicularis; conditions: in vivo, dose 0.3-1 mg/kg
Chemerin-like receptor 1 = molecular target: T2, Chemerin-like receptor 1 (Homo sapiens, UniProt Q99788); assay: Inhibition of human ChemR23 expressed in CAL-1 cells assessed as reduction in chemerin-induced calcium signaling; format: functional, cell-based, CAL1
T2 sequence (Q99788 whole entry): T1 sequence (whole entry)

[13] = Half life in cynomolgus monkey at 0.3 mg/kg, po; format: ADME, organism-based, Macaca fascicularis; conditions: in vivo
[14] = AUC(0 to infinity) in cynomolgus monkey at 0.3 mg/kg, po; format: ADME, organism-based, Macaca fascicularis; parameters: time infinity, dose 0.3 mg/kg, route po; conditions: in vivo
[15] = Cmax in cynomolgus monkey at 0.3 mg/kg, po; format: ADME, organism-based, Macaca fascicularis; parameters: dose 0.3 mg/kg, route po; conditions: in vivo
[16] = MRT in cynomolgus monkey at 0.3 mg/kg, po; format: ADME, organism-based, Macaca fascicularis; conditions: in vivo
[17] = Tmax in cynomolgus monkey at 0.3 mg/kg, po; format: ADME, organism-based, Macaca fascicularis; conditions: in vivo
[18] = Drug concentration in cynomolgus monkey plasma at 0.3 mg/kg, po after 8 hrs; format: ADME, organism-based, Macaca fascicularis

CNC(=O)c1ccc(C)cc1-c1ccc([C@@H](C)N(CC2CC2)c2nc(C(=O)NS(=O)(=O)C3CC3)c(C3CC3)s2)cc1
MRT [1]: 6.1 h
AUC(0-inf) [2]: 21400 ng·h/mL
concentration at 8 h [3]: 996 ng/mL
half-life [4]: 3 h
Cmax [5]: 2810 ng/mL
Tmax [6]: 4 h
IC80 [7]: 57 nM

Cc1sc(N(CC2CC2)[C@H](C)c2ccc(-c3cc(Cl)ccc3-c3nc(=O)o[nH]3)cc2)nc1C(=O)NS(C)(=O)=O
AUC(0-inf) [2]: 726 ng·h/mL
concentration at 8 h [3]: 4.2 ng/mL
Cmax [5]: 216 ng/mL

Cc1ccc(-c2nc(=O)o[nH]2)c(-c2ccc([C@@H](C)N(CC3CC3)c3nc(C(=O)NS(=O)(=O)C4CC4)c(C4CCC4)s3)cc2)c1
Cmax [8]: 7910 ng/mL
MRT [9]: 5.7 h
Tmax [10]: 2.7 h
concentration at 8 h [3]: 2600 ng/mL
AUC(0-inf) [11]: 55800 ng·h/mL
half-life [12]: 2.8 h
IC80 [7]: 130 nM

C[C@H](c1ccc(-c2cc(Cl)ccc2C(=O)O)cc1)N(CC1CC1)c1nc(C(=O)NS(=O)(=O)C2CC2)c(C2CC2)s1
IC80 [7]: 24 nM

Cc1ccc(-c2nc(=O)s[nH]2)c(-c2ccc([C@@H](C)N(CC3CC3)c3nc(C(=O)NS(=O)(=O)C4CC4)c(C4CC4)s3)cc2)c1
MRT [1]: 6.5 h
AUC(0-inf) [2]: 39800 ng·h/mL
concentration at 8 h [3]: 2090 ng/mL
half-life [4]: 3.2 h
Cmax [5]: 4190 ng/mL
Tmax [6]: 4 h

CCS(=O)(=O)NC(=O)c1nc(N(CC2CC2)[C@H](C)c2ccc(-c3cc(Cl)ccc3-c3nc(=O)o[nH]3)cc2)sc1C
AUC(0-inf) [2]: 2170 ng·h/mL
concentration at 8 h [3]: 14 ng/mL
Cmax [5]: 716 ng/mL

Cc1ccc(-c2nc(=O)o[nH]2)c(-c2ccc([C@@H](C)N(CC3CC3)c3nc(C(=O)NS(=O)(=O)C4CC4)c(-c4ccoc4)s3)cc2)c1
IC80 [7]: > 330 nM

Cc1ccc(-c2nc(=O)o[nH]2)c(-c2ccc([C@@H](C)N(CC3CC3)c3nc(C(=O)NS(=O)(=O)C4CC4)c(CC(C)C)s3)cc2)c1
Cmax [8]: 4250 ng/mL
MRT [9]: 4.9 h
Tmax [10]: 2.7 h
concentration at 8 h [3]: 772 ng/mL
AUC(0-inf) [11]: 21900 ng·h/mL
half-life [12]: 2.3 h
IC80 [7]: 42 nM

CCNC(=O)CCC(=O)N1Cc2ccccc2-c2nnn(CCOCCOCCOCCOCCOCCOCCNC(=O)c3ccc(Cl)cc3-c3ccc([C@@H](C)N(CC4CC4)c4nc(C(=O)NS(=O)(=O)C5CC5)c(C5CC5)s4)cc3)c2-c2ccccc21
IC50 (Chemerin-like receptor 1): 9.1 nM

CCONC(=O)c1ccc(Cl)cc1-c1ccc([C@@H](C)N(CC2CC2)c2nc(C(=O)NS(=O)(=O)C3CC3)c(C3CC3)s2)cc1
half-life [13]: 2.6 h
AUC(0-inf) [14]: 2060 ng·h/mL
Cmax [15]: 296 ng/mL
MRT [16]: 5.3 h
Tmax [17]: 4 h
concentration at 8 h [18]: 87.7 ng/mL

CCc1sc(N(CC2CC2)[C@H](C)c2ccc(-c3cc(C)ccc3-c3nc(=O)o[nH]3)cc2)nc1C(=O)NS(=O)(=O)C1CC1
Cmax [8]: 5970 ng/mL
MRT [9]: 2.9 h
Tmax [10]: 1.7 h
concentration at 8 h [3]: 85.7 ng/mL
AUC(0-inf) [11]: 10300 ng·h/mL
half-life [12]: 3 h
IC80 [7]: 63 nM

CNC(=O)c1ccc(Cl)cc1-c1ccc([C@@H](C)N(CC2CC2)c2nc(C(=O)NS(=O)(=O)C3CC3)c(C3CC3)s2)cc1
half-life [13]: 3.6 h
AUC(0-inf) [14]: 8720 ng·h/mL
Cmax [15]: 897 ng/mL
MRT [16]: 6.4 h
Tmax [17]: 4 h
concentration at 8 h [18]: 453 ng/mL
IC80 [7]: 9 nM

Cc1sc(N(CC2CC2)[C@H](C)c2ccc(-c3cc(Cl)ccc3-c3nc(=O)o[nH]3)cc2)nc1C(=O)O
AUC(0-inf) [2]: 2210 ng·h/mL
concentration at 8 h [3]: 7.9 ng/mL
Cmax [5]: 646 ng/mL

C[C@H](c1ccc(-c2cc(Cl)ccc2C(=O)NCCOCCOCCOCCOCCOCCOCCn2nnc3c2-c2ccccc2N(C(=O)CCNC(=O)CCOCCOCCOCCOCCNC(=O)CCCC[C@@H]2SC[C@@H]4NC(=O)N[C@@H]42)Cc2ccccc2-3)cc1)N(CC1CC1)c1nc(C(=O)NS(=O)(=O)C2CC2)c(C2CC2)s1
IC50 (Chemerin-like receptor 1): 14 nM

C[C@H](c1ccc(-c2cc(Cl)ccc2C(N)=O)cc1)N(CC1CC1)c1nc(C(=O)NS(=O)(=O)C2CC2)c(C2CC2)s1
half-life [13]: 1.8 h
AUC(0-inf) [14]: 2950 ng·h/mL
Cmax [15]: 730 ng/mL
MRT [16]: 3.4 h
Tmax [17]: 1.3 h
concentration at 8 h [18]: 68.9 ng/mL
IC80 [7]: 9.8 nM

CONC(=O)c1ccc(Cl)cc1-c1ccc([C@@H](C)N(CC2CC2)c2nc(C(=O)NS(=O)(=O)C3CC3)c(C3CC3)s2)cc1
half-life [13]: 3.3 h
AUC(0-inf) [14]: 3290 ng·h/mL
Cmax [15]: 484 ng/mL
MRT [16]: 5.3 h
Tmax [17]: 2.7 h
concentration at 8 h [18]: 116 ng/mL

Cc1ccc(-c2nc(=O)o[nH]2)c(-c2ccc([C@@H](C)N(CC3CC3)c3nc(C(=O)NS(=O)(=O)C4CC4)c(-c4ccncc4)s3)cc2)c1
IC80 [7]: 74 nM

Cc1ccc(-c2nc(=O)o[nH]2)c(-c2ccc([C@@H](C)N(CC3CC3)c3nc(C(=O)NS(=O)(=O)C4CC4)c(-c4ccccc4)s3)cc2)c1
IC80 [7]: > 330 nM

Cc1ccc(-c2nc(=O)o[nH]2)c(-c2ccc([C@@H](C)N(CC3CC3)c3nc(C(=O)NS(=O)(=O)C4CC4)c(C(C)C)s3)cc2)c1
Cmax [8]: 5670 ng/mL
MRT [9]: 5.2 h
Tmax [10]: 4 h
concentration at 8 h [3]: 1140 ng/mL
AUC(0-inf) [11]: 33800 ng·h/mL
half-life [12]: 2.4 h
IC80 [7]: 18 nM

Cc1ccc(-c2nc(=O)o[nH]2)c(-c2ccc([C@@H](C)N(CC3CC3)c3nc(C(=O)NS(=O)(=O)C4CC4)c(C4CCOC4)s3)cc2)c1 (stereo not given in full)
IC80 [7]: 12 nM

Cc1sc(N(CC2CC2)[C@H](C)c2ccc(-c3cc(Cl)ccc3-c3nc(=O)o[nH]3)cc2)nc1C(=O)NS(=O)(=O)C1(C)CC1
IC80 [7]: 110 nM

Cc1ccc(-c2nc(=O)o[nH]2)c(-c2ccc([C@@H](C)N(CC3CC3)c3nc(C(=O)NS(=O)(=O)C4CC4)c(-c4cccnc4)s3)cc2)c1
IC80 [7]: 39 nM

COc1cccc(-c2sc(N(CC3CC3)[C@H](C)c3ccc(-c4cc(C)ccc4-c4nc(=O)o[nH]4)cc3)nc2C(=O)NS(=O)(=O)C2CC2)c1
IC80 [7]: 42 nM

Cc1ccc(-c2nc(=O)o[nH]2)c(-c2ccc([C@@H](C)N(CC3CC3)c3nc(C(=O)NS(=O)(=O)C4CC4)c(C)s3)cc2)c1
Cmax [8]: 3180 ng/mL
MRT [9]: 4.2 h
Tmax [10]: 3.3 h
concentration at 8 h [3]: 233 ng/mL
AUC(0-inf) [11]: 12500 ng·h/mL
half-life [12]: 2.1 h
IC80 [7]: 53 nM

CCCc1sc(N(CC2CC2)[C@H](C)c2ccc(-c3cc(C)ccc3-c3nc(=O)o[nH]3)cc2)nc1C(=O)NS(=O)(=O)C1CC1
IC80 [7]: 25 nM

Cc1sc(N(CC2CC2)[C@H](C)c2ccc(-c3cc(Cl)ccc3-c3nc(=O)o[nH]3)cc2)nc1C(=O)NC1CC1
IC80 [7]: > 330 nM

Cc1sc(N(CC2CC2)[C@H](C)c2ccc(-c3cc(Cl)ccc3-c3nc(=O)o[nH]3)cc2)nc1C(=O)NS(=O)(=O)C1CC1
AUC(0-inf) [2]: 3740 ng·h/mL
concentration at 8 h [3]: 18 ng/mL
Cmax [5]: 1210 ng/mL

Cc1sc(N(CC2CC2)[C@H](C)c2ccc(-c3cc(Cl)ccc3-c3nc(=O)o[nH]3)cc2)nc1C(=O)NS(=O)(=O)C1CCCC1
AUC(0-inf) [2]: 1730 ng·h/mL
concentration at 8 h [3]: 10 ng/mL
Cmax [5]: 722 ng/mL
IC80 [7]: 66 nM

Cc1ccc(-c2nc(=O)o[nH]2)c(-c2ccc([C@@H](C)N(CC3CC3)c3nc(C(=O)NS(=O)(=O)C4CC4)c(-c4ccsc4)s3)cc2)c1
IC80 [7]: > 330 nM

COCCc1sc(N(CC2CC2)[C@H](C)c2ccc(-c3cc(C)ccc3-c3nc(=O)o[nH]3)cc2)nc1C(=O)NS(=O)(=O)C1CC1
Cmax [8]: 3530 ng/mL
MRT [9]: 4.2 h
Tmax [10]: 2.7 h
concentration at 8 h [3]: 274 ng/mL
AUC(0-inf) [11]: 12800 ng·h/mL
half-life [12]: 2.6 h
IC80 [7]: 33 nM
